Results from US12529017B2, “Detergent composition comprising a lipase” (Novozymes A/S, priority 2020, dated 2026).

Test: Butyric acid release (odor) from lipase washed butter swatches by SPME-GC, Model E1 detergent
Procedure: The butyric acid release (odor) from the lipase washed swatches were measured by Solid Phase Micro Extraction Gas Chromatography (SPME-GC) using the following method.
40 mL of Model E1 detergent wash liquor was added to a 50 mL test tube. CS-10 butter swatches (CFT) were prepared from 5×5 cm swatches as round punch-outs with a 2-cm diameter. The butter swatches were prepared using methods similar to those described in Example 1. Lipase and methyl ricinoleate (Sigma-Aldrich R8750) were added to the tubes according to the table below, followed by the addition of 10 steel balls and 2 CS-10 swatches per tube. The tubes were continuously agitated at 40 rpm for 25 minutes at 20° C. The samples were then rinsed with cold water for 5 min and finally dried on filter paper for 16 hours.
The dried CS-10 swatches were transferred to Gas Chromatograph (GC) vials, which were then sealed. The samples were incubated at 30° C. for 24 hours, heated to 140° C. for 30 minutes, and stored at 20-25° C. for at least 4 hours before analysis. The analyses were performed on a Shimadzu Nexis GC-2030 equipped with a Carboxen PDMS SPME fiber (85 μm). Sampling from each GC vial was performed at 50° C. for 8 minutes with the SPME fiber in the head-space over the textile pieces as the sampled compounds were subsequently injected onto the column (injector temperature=250° C. Column flow=2 mL helium/minute. Column over temperature gradient: 0 minute=50° C., 2 minutes=50° C., 6 minutes 45 seconds=240° C.). Detection was performed using a Flame Ionization Detector (FID). Retention time for butyric acid was identified using an authentic standard. The area of each peak was measured and compared to the area of the reference peak (Lipase 2, no methyl ricinoleate). The data presents the peak sizes as the % peak size relative to the corresponding peak size from the Lipase 2 alone wash conditions. The experiment was performed twice. The Coefficient of Variation (CV) was 5%.

Butyric acid peak size normalized to lipase alone (%) (methyl ricinoleate 1 mM, with Lipase 2, 25 minutes at 20° C.) | Butyric acid peak size normalized to lipase alone (%) (methyl ricinoleate 1 mM, without Lipase 2, 25 minutes at 20° C.) | Butyric acid peak size normalized to lipase alone (%) (methyl ricinoleate 5 mM, with Lipase 2, 25 minutes at 20° C.) | Butyric acid peak size normalized to lipase alone (%) (methyl ricinoleate 5 mM, without Lipase 2, 25 minutes at 20° C.) | Butyric acid peak size normalized to lipase alone (%) (Lipase 2 alone, no methyl ricinoleate (reference peak), 25 minutes at 20° C.) | Molecule
88% | 0% | 89% | 0% |  | CCCCCC[C@@H](O)C/C=C\CCCCCCCC(=O)OC [Methyl ricinoleate, methyl ricinoleate]
 |  |  |  | 100% | Lipase 2: Thermomyces lanuginosus lipase (TLL) SEQ ID NO: 1 with substitutions E1C+D27R+G38A+F51V+D96E+K981+D111A+G163K+H198S+Y220F+T231R+N233C+D254S+P256T (Novozymes A/S) (protein, listed as Thermomyces lanuginosus, mat_peptide (1)..(269)) CVSQDLFNQFNLFAQYSAAAYCGKNNRALAGTNITCTANACPEVEKADATVLYSFEDSGVGDVTGFLALDNTNKLIVLSFRGSRSIENWIGNLNFELIEINDICSGCRGHAGFTSSWRSVADTLRQKVEDAVREHPDYRVVFTGHSLGGALATVAGADLRGNKYDIDVFSYGAPRVGNRAFAEFLTVQTGGTLYRITSTNDIVPRLPPREFGYSHSSPEFWIKSGTLVLVRRCDIVKIEGIDATGGNNQPNIPSITAHLWYFGLIGTCL
